{
  "source": "paper PMC8303187",
  "about": "“Anti-Inflammatory Effects of Compounds from Cudrania tricuspidata in HaCaT Human Keratinocytes” (International Journal of Molecular Sciences, 2021)",
  "format_in_all_cases": "cell-based, human",
  "key": {"[1]": {"system": "p38 phosphorylation in HaCaT cells", "test": "p38 phosphorylation in TNF-α + IFN-γ-treated HaCaT cells (Western blotting)", "settings": "HaCaT cells pretreated 3 h, then TNF-α + IFN-γ (20 ng/mL) 6 h; Western blot", "protocol": "(§1) Stimulation of keratinocytes with TNF-α + IFN-γ upregulates various MAPK signaling pathways. To evaluate the anti-inflammatory effects of the six compounds from C. tricuspidata on the MAPK pathway, Western blotting analysis was used to determine the phosphorylation levels of JNK1/2, ERK1/2, and p38 in TNF-α + IFN-γ-treated HaCaT cells. Cells were pretreated with the six compounds from C. tricuspidata at the indicated concentrations for 3 h, and then stimulated with TNF-α + IFN-γ (20 ng/mL) for either 15 min, 2 h, or 6 h. Following the treatment with TNF-α + IFN-γ for 2 h, the phosphorylation of JNK1/2 was not inhibited by any of the six compounds (Figure 6A,B). After 15 min of treatment with TNF-α + IFN-γ, ERK1/2 phosphorylation was inhibited only by compound 14 (Figure 6C,D). The phosphorylation of p38 was inhibited only by compounds 13 and 4 after 6 h of treatment with TNF-α + IFN-γ (Figure 6E,F). […]\n(§2) Figure 6 Effect of the six compounds from C. tricuspidata on JNK-1/2, ERK-1/2, and p38 phosphorylation in HaCaT cells. […] Cell extracts were analyzed using Western blotting and antibodies specific for phosphorylated JNK1/2 (p-JNK1/2), p-ERK1/2, or p-p38. […] Immunoblots were quantified using ImageJ software. The band intensity was quantified and normalized to each total protein concentration. * p < 0.05, ** p < 0.01, and *** p < 0.001 compared with TNF-α + IFN-γ only. […]"}, "[2]": {"system": "COX-2 protein expression in HaCaT cells", "test": "COX-2 protein expression in TNF-α + IFN-γ-treated HaCaT cells (Western blotting)", "settings": "HaCaT cells pre-incubated 3 h (5–80 μM), then TNF-α + IFN-γ (20 ng/mL) 24 h; Western blot", "from_the_text": "(§3) ICAM-1 is expressed in keratinocytes and is critical for the development of many skin diseases, such as contact dermatitis and lichen planus. Cyclooxygenase (COX) is the enzyme responsible for the conversion of arachidonic acid to prostaglandin H2, which is the main step in the prostaglandin synthesis pathway. COX-2 expression plays a key role in skin inflammation. In this experiment, the anti-inflammatory effects of the six compounds from C. tricuspidata on the expression of pro-inflammatory proteins were investigated in TNF-α + IFN-γ-treated HaCaT cells. Briefly, cells were pre-incubated for 3 h with or without the six compounds from C. tricuspidata (5–80 μM) and were subsequently challenged with TNF-α + IFN-γ (20 ng/mL) for 24 h. […]\n(§4) Figure 4 Protein expression levels of COX-2 (A,B) and ICAM-1 (C,D) in TNF-α + IFN-γ-treated HaCaT cells. […] The immunoblot was quantified using ImageJ software. […]\n(§5) Cells were harvested and pelleted via centrifugation at 200× g for 3 min, washed with PBS, and lysed in 20 mM Tris-HCl buffer (pH 7.4) containing a protease inhibitor mixture (0.1 mM phenylmethanesulfonyl fluoride, 5 mg/mL aprotinin, 5 mg/mL pepstatin A, and 1 mg/mL chymostatin). The protein concentration was determined using a protein assay dye reagent concentrate (#5000006; Bio-Rad Laboratories, Hercules, CA, USA). […]"}, "[3]": {"system": "ICAM-1 protein expression in HaCaT cells", "test": "ICAM-1 protein expression in TNF-α + IFN-γ-treated HaCaT cells (Western blotting)", "settings": "HaCaT cells pre-incubated 3 h (5–80 μM), then TNF-α + IFN-γ (20 ng/mL) 6 h; Western blot", "from_the_text": "as §3, with “[…] Previous studies have reported that compound 6 inhibits” for “Briefly, cells were pre-incubated for 3 h with or without”, “expression of COX-2 [55]; however, this study is the first to report the inhibition of COX-2 protein production by compound 6 in HaCaT cells.” for “six compounds from C. tricuspidata (5–80 μM) and were subsequently challenged with TNF-α + IFN-γ (20 ng/mL) for 24 h.”\nas §4, §5"}, "[4]": {"system": "ERK1/2 phosphorylation in HaCaT cells", "test": "ERK1/2 phosphorylation in TNF-α + IFN-γ-treated HaCaT cells (Western blotting)", "settings": "HaCaT cells pretreated 3 h, then TNF-α + IFN-γ (20 ng/mL) 15 min; Western blot", "protocol": "as §1, §2"}},
  "data": [
    {"compound": "CC(C)=CCc1c(O)cc2c(c1O)C(=O)C[C@@H](c1ccc(O)cc1O)O2", "note": "[Compound 4, cudraflavanone B]", "values": [
      {"measurement": "phosphorylation of p38", "setting": "[1]", "result": "inhibited"}
    ]},
    {"compound": "CC(C)=CCc1c(O)cc2oc(-c3ccc(O)cc3O)c(CC=C(C)C)c(=O)c2c1O", "note": "[Compound 6, cudraflavone C]", "values": [
      {"measurement": "expression level of COX-2", "setting": "[2]", "result": "decreased"},
      {"measurement": "ICAM-1 expression", "setting": "[3]", "result": "particularly effective"}
    ]},
    {"compound": "C=CC(C)(C)c1c(OC)cc2oc3cc(O)c(O)cc3c(=O)c2c1O", "note": "[Compound 13, 1,6,7-trihydroxy-2-(1,1-dimethyl-2-propenyl)-3-methoxyxanthone]", "values": [
      {"measurement": "phosphorylation of p38", "setting": "[1]", "result": "inhibited"}
    ]},
    {"compound": "C=CC(C)(C)c1c(O)cc(O)c2c(=O)c3cc(O)c(O)cc3oc12", "note": "[Compound 14, cudratricusxanthone L]", "values": [
      {"measurement": "expression level of COX-2", "setting": "[2]", "result": "decreased"},
      {"measurement": "ICAM-1 expression", "setting": "[3]", "result": "particularly effective"},
      {"measurement": "ERK1/2 phosphorylation", "setting": "[4]", "result": "inhibited"}
    ]}
  ]
}
